From US9981037B2, “Combination therapy of beta-glycolipids and antibodies for the treatment of immune-related disorders” (HADASIT MEDICAL RESEARCH SERVICES AND DEVELOPMENT LTD., priority 2008, dated 2018)

Columns and labels:
PBL cells = experiment: Cytokine secretion profile of PBL cells stimulated with anti-CD3; assay type: in vivo, human
Procedure: (§1) Nine subjects (3/group) were orally administered 0.2 mg, 1.0 mg or 5.0 mg of OKT3 daily for 5 days and immune parameters measured on days 5, 10 and 30 days (FIG. 12). Six subjects (3/group) received 7.5 mg of beta glucosylceramide in combination with 0.2 mg or 1.0 mg of OKT3 and 3 subjects received GC alone. All subjects were treated with 20 mg of Omeprazole (a proton pump inhibitor) during the 5 days of dosing. Dosing occurred in the morning before breakfast at the study site following a 8 hours fast.
PBMCs were isolated from blood samples using Ficol Hypaque solution. To measure proliferation, 2×10^5 cells per well were cultured in triplicate in RPMI 1640 medium with 5% FBS (Biological Industries, Israel), 100 units/ml penicillin, 100 µg/ml streptomycin, 1% Glutamine, 1% non essential […], 1% sodium pyruvate and β-mercapto-ethanol (Biological Industries, Israel). Cells were stimulated with pre-coated antibodies (in 200 μl PBS/well):μg/well of anti OKT-3 mAb (Ortho Biotech Inc, New Jersey, USA) or 5 μg/ml soluble anti-CD3 mAb (eBioscience, CA, USA) or 2.5 μg/ml anti-CD28 mAb (R&D systems, MN, USA). One set of the above wells were added nothing while 10 μg of GC was added to a similar set for 72 h in culture at 37° C. with 5% CO2. Supernatants were collected for IL-13, IL-17 and IFN-γ. Enzyme-linked immunosorbent assays for these cytokines were performed according to the manufacturer's protocol (R&D Systems, Minneapolis, Minn.). For TGF-β, 2×10^5 cells per well were cultured in serum free media (Biotarget, Biological Industries, Israel). After collecting the supernatants, 1 µCi [^3H]thymidine (Amersham Biosciences, UK) was added to each well, and cells were harvested 18 h later. Proliferation was measured by scintillation counting.
To investigate the effect of oral OKT3 on the cytokine secretion profile of T cells, PBL cells were stimulated with 5 μg anti-CD3 and the secretion of IFN-γ, IL-17, TGF-β and IL-13 was measured.

dendritic cells = experiment: Expression of IL-23, IL-10 and TGF-β in dendritic cells by rtPCR; assay type: in vivo, human
Procedure: as §1
Frozen PBMCs were used for sorting different cell populations, surface staining, and proliferation assays, and cytokine measurements. Cell sorting was performed by thawing […] PBMCs at room temperature (RT) and washing themed twice in medium at RT in 50-ml tubes in a 10-ml volume at 1,400 rpm. Cells were suspended to 20×10^6/ml and stained with seven colors staining of cells using Fc block, Lin-FITC, CD11c-APC, CD123-PE, CD3-Amcyan, CD4-Alexa700, CD25-PB, and 7-AAD was performed. Compensation controls, including an unstained control, were prepared. All samples were washed with medium and filtered into 15-ml tubes with 2 ml volume each to a total volume of 2 ml. CD4+ effector T cells, CD4+ regulatory T cells, myeloid DCs, and plasmacytoid DCs were sorted. Tubes were washed to get retrieve all sticky cells and spin them at 1,400 rpm. All cell populations were put in 350 μl of RLT 350 ul (lysis buffer), and transferred to eppendorff microtubes, and froze at −70° C. RNA was prepared using Qiagen micro kits (Valencia, Calif., USA) and cDNA was prepared using Applied Biosystems kits (Foster City, Calif., USA). We performed real-time PCR (RT-PCR) for different genes on in regulatory T cells, effector T cells, and DCs was performed.
RT RT-PCR was performed on DC from all patients in all groups. Sorting of DC was performed as described above. Total RNA was isolated from cell pellets using the RNA easy Mini Kit (QIAGENQiagen). RNA was stored at −80° C. First, strand cDNA synthesis was performed for each RNA sample from 0.5-1 μgm of total RNA using Taqman reverse transcription reagents (Applied Biosystems). cDNA was amplified using sequence-specific primers (for IL-23, IL-10, IL-1, IL-6, and TGF-β) and real-time PCR mix (Applied Biosystems) on an ABI7500 cycler. The GAPDH gene was used as an endogenous control to normalize for differences in the amount of total. RNA in each sample. All values were expressed as fold fold-increase or -decrease relative to the expression of GAPDH.
To further investigate the effect of oral OKT3 on the innate immune system, the expression of IL-23, IL-10 and TGF-β in dendritic cells was next measured by rtPCR.

OKT3: murine monoclonal anti-CD3 antibody (Orthoclone OKT-3, Ortho Biotech)
cytokine secretion findings (PBL cells; 0.2 mg and 5.0 mg oral, not shown): similar, though not as consistent findings
subjects with decrease in IFN-γ (PBL cells; 1.0 mg oral): three subjects
subjects with decrease of IL-17 (PBL cells; 1.0 mg oral): two out of three subjects
subjects with increase of TGF-β (PBL cells; 1.0 mg oral): two out of three subjects
subjects with increase of IL-13 (PBL cells; 1.0 mg oral, not shown): three out of three subjects
subjects with similar findings (IL-10, TGF-β) in dendritic cells (dendritic cells; 0.2 mg oral, not shown): two out of three subjects
subjects with decrease in IL-23 in dendritic cells (dendritic cells; 1.0 mg oral): all three subjects
subjects with increase in IL-10 in dendritic cells (dendritic cells; 1.0 mg oral): two out of three subjects
subjects with increase in TGF-β in dendritic cells (dendritic cells; 1.0 mg oral): one out of three subjects
effect on dendritic cells (dendritic cells; 5.0 mg oral, not shown): no effect
